Laboratory results reported in patent US6617438B1, “Oligoribonucleotides with enzymatic activity” (Sirna Therapeutics, Inc., priority 1997, dated 2003).
Several values for one entry are separate records, joined by “and”; a condition that tells them apart may be missing. Equal entries are not always repeated. Where two headings read alike, the source gives them in different places. Marks after values point to notes of the source that are not given here.

Key:
[1] = target: T1, Y639F mutant T7 polymerase (Escherichia phage T7, UniProt P00573, Y639F); format: biochemical, bacteriophage T7
T1 sequence (P00573 whole entry Y639F, looked up): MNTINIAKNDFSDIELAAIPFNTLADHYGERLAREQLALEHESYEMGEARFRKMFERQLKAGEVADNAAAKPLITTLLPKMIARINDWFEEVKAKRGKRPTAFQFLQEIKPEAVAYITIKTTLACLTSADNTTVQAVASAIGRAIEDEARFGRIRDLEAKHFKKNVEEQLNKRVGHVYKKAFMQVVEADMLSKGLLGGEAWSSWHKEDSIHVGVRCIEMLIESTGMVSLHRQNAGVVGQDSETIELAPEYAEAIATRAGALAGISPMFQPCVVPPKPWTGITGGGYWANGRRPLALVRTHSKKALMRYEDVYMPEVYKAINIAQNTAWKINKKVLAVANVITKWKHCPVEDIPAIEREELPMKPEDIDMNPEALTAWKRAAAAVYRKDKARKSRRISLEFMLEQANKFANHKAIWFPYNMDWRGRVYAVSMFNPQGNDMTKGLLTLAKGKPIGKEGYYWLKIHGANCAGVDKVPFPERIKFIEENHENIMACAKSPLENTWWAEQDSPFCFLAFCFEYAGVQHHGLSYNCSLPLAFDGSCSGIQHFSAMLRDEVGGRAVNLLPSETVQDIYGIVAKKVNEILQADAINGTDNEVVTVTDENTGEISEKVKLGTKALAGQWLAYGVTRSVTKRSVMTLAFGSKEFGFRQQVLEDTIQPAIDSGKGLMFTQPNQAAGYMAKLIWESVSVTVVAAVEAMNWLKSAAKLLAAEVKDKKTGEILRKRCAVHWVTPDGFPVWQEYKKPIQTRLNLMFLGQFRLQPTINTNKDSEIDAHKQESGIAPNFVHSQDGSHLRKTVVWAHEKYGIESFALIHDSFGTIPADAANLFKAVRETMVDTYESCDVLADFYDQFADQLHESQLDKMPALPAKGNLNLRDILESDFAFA

[2] = target: T1, Y639F mutant T7 polymerase; format: biochemical, bacteriophage T7; remark: listed apart in the source
[3] = target: T2, Bacteriophage T7 RNA polymerase (wild type) (Escherichia phage T7, UniProt P00573); assay: biochemical; format: biochemical; conditions: for activity at 2000 µM: read-out: % ribo control
T2 construct: purchased Boehringer Mannheim
T2 sequence (P00573 whole entry): as the sequence (P00573 whole entry Y639F, looked up) above, with F639Y counted along it
Description: Bacteriophage T7 RNA polymerase was purchased from Boehringer Mannheim at 0.4 U/μL concentration. Applicant used the commercial buffer supplied with the enzyme and 0.2 μCi alpha-^32P NTP in a 50 μL reaction with nucleotides triphosphates at 2 mM each. The template was a double-stranded PCR fragment, which was used in previous screens. Reactions were carried out at 37° C. for 1 hour. Ten μL of the sample was run on a 7.5% analytical PAGE and bands were quantitated using a Phosphorlmager.

[4] = high-risk patients; cited from earlier work
BT-474 xenografts = conditions: combination study, dose not given; cited from earlier work
[5] = together with 2′-his-UTP and 2′-amino-CTP, same buffer (condition 9)
[6] = together with rUTP and rCTP, same buffer (condition 9)
[7] = together with 2′-his-UTP, rATP and rGTP, condition number 9
[8] = together with rUTP, condition number 9
[9] = wild type T7 polymerase, commercial buffer, 37° C., 1 hour, label GTP
[10] = wild type T7 polymerase, commercial buffer, 37° C., 1 hour, label ATP
[11] = COND# 1: 20 mM MgCl2, 10% methanol, 1 mM LiCl, no PEG, 25° C.
[12] = COND# 2: 20 mM MgCl2, 10% methanol, 1 mM LiCl, 4% PEG, 25° C.
[13] = COND# 3: 12 mM MgCl2, 4% PEG, 25° C.
[14] = COND# 4: 12 mM MgCl2, 10% methanol, 4% PEG, 25° C.
[15] = COND# 5: 12 mM MgCl2, 1 mM LiCl, 4% PEG, 25° C.
[16] = COND# 6: 12 mM MgCl2, 10% methanol, 1 mM LiCl, 4% PEG, 25° C.
[17] = COND# 7: 20 mM MgCl2, 10% methanol, 1 mM LiCl, no PEG, 37° C.
[18] = COND# 8: 20 mM MgCl2, 10% methanol, 1 mM LiCl, 4% PEG, 37° C.
[19] = COND# 9: 12 mM MgCl2, 4% PEG, 37° C.
[20] = COND# 10: 12 mM MgCl2, 10% methanol, 4% PEG, 37° C.
[21] = COND# 11: 12 mM MgCl2, 1 mM LiCl, 4% PEG, 37° C.
[22] = COND# 12: 12 mM MgCl2, 10% methanol, 1 mM LiCl, 4% PEG, 37° C.

Compound: Nc1ncnc2c1ncn2[C@@H]1O[C@H](COP(=O)(O)OP(=O)(O)OP(=O)(O)O)[C@@H](O)[C@H]1O [ATP]
- percentage of incorporation compared to the all-RNA control [1, 5]: 15.7%
- percentage of incorporation compared to the all-RNA control [1, 6]: 100%

Compound: Nc1nc(N)c2ncn([C@@H]3O[C@H](CO)C(O)C3N)c2n1 (stereo partly drawn) [2′-NH2—DAP, 2′-deoxy-2′amino-2,6-diaminopurine riboside]
- percentage of incorporation compared to the all-RNA control [1]: 8.9* % and 9.6%
- full-length transcript, percent compared to all-rNTP control [2]: 0% and 1%

Compound: CO[C@@H]1[C@H](O)[C@@H](COP(=O)(O)OP(=O)(O)OP(=O)(O)O)O[C@H]1n1cnc2c(N)ncnc21 [2′-O—Me—ATP]
- full-length transcript, percent compared to all-rNTP control [2]: 0% and 2% and 1%

Compound: Nc1ccn([C@@H]2O[C@H](COP(=O)(O)OP(=O)(O)OP(=O)(O)O)[C@@H](O)[C@H]2O)c(=O)n1 [CTP]
- percentage of incorporation compared to the all-RNA control [1, 7]: 16.1%
- percentage of incorporation compared to the all-RNA control [1, 8]: 100%

Compound: COC1C(O)[C@@H](CO)O[C@H]1n1cc(CCCN)c(=O)[nH]c1=O (stereo partly drawn) [5-(3-aminopropyl)-2′-O-methyl uridine]
- activity at 2000 µM [3, 9]: 0%
- full-length transcript, percent compared to all-rNTP control [2]: 4% and 10%

Compound: 2′-deoxy-2′-amino-UTP [2′-NH2—UTP]
- % ribo control [3]: 39%

Compound: CC(N)C(=O)NC1C(O)[C@@H](CO)O[C@H]1n1ccc(=O)[nH]c1=O (stereo partly drawn) [ala-2′-NH2—UTP, 2′-(N-alanyl) amino-2′-deoxy-uridine]
- activity at 2000 µM [3, 10]: 2%

Compound: O=c1ccn([C@@H]2O[C@H](COP(=O)(O)OP(=O)(O)OP(=O)(O)O)[C@@H](O)[C@H]2F)c(=O)[nH]1 [2′-F—UTP, 2′-deoxy-2′-fluoro-uridine triphosphate]
- activity at 2000 µM ([3]; 1 h): 100%
- full-length transcript, percent compared to all-rNTP control [2]: 100%

Compound: NO[C@@H]1[C@H](O)[C@@H](CO)O[C@H]1n1ccc(=O)[nH]c1=O [2′-O—NH2—UTP, 2′-O-amino-uridine]
- activity at 2000 µM [3, 10]: 1%

Compound: CO[C@@H]1[C@H](O)[C@@H](COP(=O)(O)OP(=O)(O)OP(=O)(O)O)O[C@H]1n1cnc2c(=O)[nH]c(N)nc21 [2′-O—Me—GTP, 2′-O-methyl-guanosine-5′-Triphosphate]
- activity at 2000 µM ([3]; 1 h): 3%
- full-length transcript, percent compared to all-rNTP control [2]: 4% and 5% and 3% and 2%

Compound: CSCO[C@@H]1[C@H](O)[C@@H](CO)O[C@H]1n1cnc2c(=O)[nH]c(N)nc21 [2′-O—MTM—GTP, 2′-O-methylthiomethyl guanosine]
- activity at 2000 µM [3, 10]: 3%
- full-length transcript, percent compared to all-rNTP control [2]: 6% and 3% and 1% and 4% and 2% and 0%

Compound: 2′-dGTP
- % ribo control [3]: 3%

Compound: Nc1ncnc2c1ncn2[C@@H]1O[C@H](COP(=O)(O)OP(=O)(O)OP(=O)(O)O)[C@@H](O)[C@H]1F [2′-F—ATP, 2′-deoxy-2′-fluoro-adenine triphosphate]
- percentage of incorporation compared to the all-RNA control [1, 5]: 4%
- percentage of incorporation compared to the all-RNA control [1, 6]: 222.6%
- full-length transcript, percent compared to all-rNTP control [2, 11]: 227%
- full-length transcript, percent compared to all-rNTP control [2, 12]: 252%
- full-length transcript, percent compared to all-rNTP control [2, 13]: 98%
- full-length transcript, percent compared to all-rNTP control [2, 14]: 103%
- full-length transcript, percent compared to all-rNTP control [2, 15]: 100%
- full-length transcript, percent compared to all-rNTP control [2, 16]: 116%
- full-length transcript, percent compared to all-rNTP control [2, 17]: 288%
- full-length transcript, percent compared to all-rNTP control [2, 18]: 278%
- full-length transcript, percent compared to all-rNTP control [2, 19]: 471%
- full-length transcript, percent compared to all-rNTP control [2, 20]: 198%
- full-length transcript, percent compared to all-rNTP control [2, 21]: 317%
- full-length transcript, percent compared to all-rNTP control [2, 22]: 185%

Compound: CC/C(=C(\c1ccccc1)c1ccc(OCCN(C)C)cc1)c1ccccc1 [tamoxifen]
- reduction of breast cancer incidence [4]: 49%

Compound: 2′-deoxy-2′-amino-CTP [2′-NH2—CTP]
- percentage of incorporation compared to the all-RNA control [1, 7]: 9.5* %
- percentage of incorporation compared to the all-RNA control [1, 8]: 232.7%
- % ribo control [3, 9]: 59%
- full-length transcript, percent compared to all-rNTP control [2, 11]: 11%
- full-length transcript, percent compared to all-rNTP control [2, 12]: 37%
- full-length transcript, percent compared to all-rNTP control [2, 13]: 45%
- full-length transcript, percent compared to all-rNTP control [2, 14]: 64%
- full-length transcript, percent compared to all-rNTP control [2, 15]: 25%
- full-length transcript, percent compared to all-rNTP control [2, 16]: 70%
- full-length transcript, percent compared to all-rNTP control [2, 17]: 26%
- full-length transcript, percent compared to all-rNTP control [2, 18]: 54%
- full-length transcript, percent compared to all-rNTP control [2, 19]: 292%
- full-length transcript, percent compared to all-rNTP control [2, 20]: 264%
- full-length transcript, percent compared to all-rNTP control [2, 21]: 109%
- full-length transcript, percent compared to all-rNTP control [2, 22]: 244%

Compound: NC(Cc1ccccc1)C(=O)NC1C(O)[C@@H](CO)O[C@H]1n1ccc(=O)[nH]c1=O (stereo partly drawn) [phe-2′-NH2—UTP, 2′-(N-phenylalanyl)amino-2′-deoxy-uridine]
- activity at 2000 µM [3, 10]: 1%
- full-length transcript, percent compared to all-rNTP control [2]: 8% and 6% and 10% and 12% and 7% and 4%

Compound: 2′-F—GTP
- % ribo control [3]: 4%

Compound: Nc1ncnc2c1ncn2[C@H]1C[C@H](O)[C@@H](COP(=O)(O)OP(=O)(O)OP(=O)(O)O)O1 [2′-dATP]
- percentage of incorporation compared to the all-RNA control [1, 5]: 2.3%
- percentage of incorporation compared to the all-RNA control [1, 6]: 146.3%
- full-length transcript, percent compared to all-rNTP control [2, 11]: 9%
- full-length transcript, percent compared to all-rNTP control [2, 12]: 3%
- full-length transcript, percent compared to all-rNTP control [2, 13]: 19%
- full-length transcript, percent compared to all-rNTP control [2, 14]: 23%
- full-length transcript, percent compared to all-rNTP control [2, 15]: 9%
- full-length transcript, percent compared to all-rNTP control [2, 16]: 24%
- full-length transcript, percent compared to all-rNTP control [2, 17]: 6%
- full-length transcript, percent compared to all-rNTP control [2, 18]: 3%
- full-length transcript, percent compared to all-rNTP control [2, 19]: 84%
- full-length transcript, percent compared to all-rNTP control [2, 20]: 70%
- full-length transcript, percent compared to all-rNTP control [2, 21]: 28%
- full-length transcript, percent compared to all-rNTP control [2, 22]: 51%

Compound: NCCC(=O)N[C@@H]1[C@H](O)[C@@H](CO)O[C@H]1n1ccc(=O)[nH]c1=O [2′-β NH2-ala-UTP, 2′-(N-β-alanyl)amino-2′-deoxy uridine]
- activity at 2000 µM [3, 10]: 3%

Compound: CC(=O)O[C@H]1C(=O)[C@@]2(C)[C@H]([C@H](OC(=O)c3ccccc3)[C@]3(O)C[C@H](OC(=O)[C@H](O)[C@@H](NC(=O)c4ccccc4)c4ccccc4)C(C)=C1C3(C)C)[C@]1(OC(C)=O)CO[C@@H]1C[C@@H]2O [paclitaxel]
- inhibition of tumor growth (BT-474 xenografts): 35%

Compound: COC1C(O)[C@@H](CO)O[C@H]1n1cnc2c(N)nc(N)nc21 (stereo partly drawn) [2′-O—Me—DAP, 2′-O-methyl-2,6-diaminopurine riboside]
- percentage of incorporation compared to the all-RNA control [1]: 1.9% and 5.7%
- full-length transcript, percent compared to all-rNTP control [2]: 4% and 5% and 3%

Compound: CSCO[C@@H]1[C@H](O)[C@@H](CO)O[C@H]1n1cnc2c(N)ncnc21 [2′-O—MTM—ATP, 2′-O-methylthiomethyl adenosine]
- activity at 2000 µM [3, 9]: 1%
- full-length transcript, percent compared to all-rNTP control [2]: 0% and 1%

Compound: CSCO[C@@H]1[C@H](O)[C@@H](COP(=O)(O)OP(=O)(O)OP(=O)(O)O)O[C@H]1n1ccc(=O)[nH]c1=O [2′-O-MTM-UTP, 2′-O-methylthiomethyl-uridine-5 ′-triphosphate]
- activity at 2000 µM [3, 10]: 64%

Compound: CSCO[C@@H]1[C@H](O)[C@@H](CO)O[C@H]1n1ccc(N)nc1=O [2′-O—MTM—CTP, 2′-O-methylthiomethyl cytidine]
- percentage of incorporation compared to the all-RNA control [1]: 5.9% and 5.1%
- full-length transcript, percent compared to all-rNTP control [2]: 2% and 4% and 5% and 3% and 1%
